For one data set, the target named is T1, BRD4 bromodomain 1 (BD1) (Homo sapiens, UniProt O60885).
T1 construct: Selectivity against BRD4 bromodomain 1 (BD1), measured by HTRF; His; purchased Cayman 11720
As to the kind of experiment: BRD4 (BD1)-H4 tetra-acetylated HTRF histone-binding assay. Put shortly:
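Recombinant BRD4 BD1 (10 nM) was combined with 13.3 nM biotinylated tetra-acetylated H4 peptide, Eu-anti-His antibody and APC-streptavidin in HEPES buffer, pH 7. Compound was pin-transferred and plates incubated ≥2 h before HTRF reading (665/620 nm ratio). Percent inhibition was normalised to vehicle (maximum) and no-peptide (minimum) wells.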

Data set [1] in a line: Half-life in mouse liver microsomes. To be noted: read-out: t1/2 (min) mouse liver microsomes. It is filed as in vitro ADME. (Liver microsomes are a subcellular fraction often used to study metabolism.)

The term IC50 denotes the point on the concentration scale where inhibition reaches its midpoint. A lower IC50 goes with greater potency in that assay. In the case of `O=C(NC1CCC1)c1ccc2nc(-c3cccc(NS(=O)(=O)NCCN4CCCCC4)c3)cn2c1` [Compound 93], the half-maximal inhibitory concentration (IC50) at BRD4 bromodomain 1 (BD1) (Table 1) and on BRD4 bromodomain 1 (BD1) (Table 2) was more than 50 µM in each case. In data set [1], the half-life was found to be 9.98 min.
